Reference: patent US7109170B2, “Region of factor IXa protease domain that interacts with factor VIIIa and methods therefor” (Saint Louis University, priority 1999, dated 2006)
Peptide text beside a SMILES is read from it.

Target: T1, factor IXa (Homo sapiens, UniProt P00740)
T1 construct: heavy chain of factor IXa comprised of residues 181–415; light chain of factor IXa comprised of residues 1–145
Experiment: Factor IX peptide competition assay in the absence of factor VIIIa
Format: biochemical
Method: Each reaction mixture contained 20 nM of factor IXa, 100 nM of factor X, various concentrations of peptide, 25 μM of phospholipid, and 5 mM CaCl2 in TBS/BSA. The reaction mixtures were incubated for 2.5, 5, 10, 15, and 20 minutes at 37° C. and were stopped with the addition of 1.5 μL of 0.5 M EDTA and placed on ice. Forty μL of each reaction was 5 added to 100 μL of TBS/BSA in a 96 well microtiter plate and S-2222 was added to a final concentration of 100 μM.

CC(C)C[C@H](N)C(=O)N[C@H](C(=O)N[C@@H](CC(=O)O)C(=O)N[C@@H](CCCNC(=N)N)C(=O)N[C@@H](C)C(=O)N[C@H](C(=O)O)[C@@H](C)O)C(C)C [Protein P-4351, LVDRAT] (H-LVDRAT-OH; N-terminus and C-terminus assumed)
inhibitory effect on factor IXa's ability to activate factor X: no inhibitory effect
